Molecules are shown by their SMILES. Counter-ions that a name gives are not always drawn. Like-named read-outs stand apart in the source and are kept apart here.

The text below walks through data of patent publication US8394967B2, “Antioxidant inflammation modulators: C-17 homologated oleanolic acid derivatives” (Reata Pharmaceuticals, Inc., priority 2008, dated 2013).

The test system of assay [1] is HO-1. Description: Nrf2 target gene induction, MDA-MB-435 (qPCR): HO-1. The note with it: Homo sapiens; MDA-MB-435, 250 nM, 16 hours, mRNA by qPCR. The format is cell-based. The protocol:
(§1) Nrf2 target gene induction. MDA-MB-435 human melanoma cells were treated with vehicle (DMSO) or the indicated compounds and concentrations for 16 hours. HO-1, thioredoxin reductase-1 (TrxR1), γ-glutamylcysteine synthetase (γ-GCS), and ferritin heavy chain mRNA levels were quantified using qPCR and were normalized relative to a DMSO-treated sample run in parallel. Values are averages of duplicate wells. Primer sequences are as follows.
In general terms: Real-time PCR tracks product formation cycle by cycle.

The test system of assay [2] is NQO1. As to the kind of experiment: Nrf2 target gene induction, MDA-MB-435 (qPCR): NQO1. The format is cell-based. The note with it: Homo sapiens; MDA-MB-435, 250 nM, 16 hours, mRNA by qPCR.
Assay [3] deals with NO production in RAW264.7 macrophages. Description: Inhibition of NO production in IFNγ-treated RAW264.7 macrophages (Griess reagent). The note with it: then 20 ng/ml IFNγ for 24 hours. The format is cell-based, mouse. The protocol: (§2) FIGS. 1-4, 6 and 8. Inhibition of NO Production. RAW264.7 macrophages were pre-treated with DMSO or drugs at various concentrations (nM) for 2 hours, then treated with 20 ng/ml IFNγ for 24 hours. NO concentration in media was determined using a Griess reagent system; cell viability was determined using WST-1 reagent.
(§3) Nitric Oxide production and cell viability. RAW264.7 macrophages were pre-treated with DMSO or drugs for 2 hours, then treated with recombinant mouse IFNγ (Sigma) for 24 hours. NO concentration in media was determined using the Griess reagent system (Promega). Cell viability was determined using WST-1 reagent (Roche).
Background: Nitrite, measured by Griess reagent, commonly stands in for NO production.

In assay [4] the test system is γ-GCS. As to the kind of experiment: Nrf2 target gene induction, MDA-MB-435 (qPCR): γ-GCS. Type of assay: cell-based. The note with it: Homo sapiens; MDA-MB-435, 250 nM, 16 hours, mRNA by qPCR. The protocol: as §1
Assay [5] concerns RAW264.7 macrophages. Description: Cell viability of RAW264.7 macrophages (WST-1 reagent). The note with it: cell viability, RAW264.7, 20 ng/ml IFNγ 24 hours, WST-1 reagent, read-out: RAW264.7 (20 ng/ml IFNγ) WST-1 IC50. The format is cell-based, mouse. As for the experimental part:
as §2, §3
(Formazan colour is commonly taken as a measure of viable cells.)

Setting [6] is: Mus musculus, RAW264.7, RAW264.7 macrophages pre-treated 2 hours.

In general, fold induction refers to the ratio of treated to control signal. Lower therefore signals little rise in signal. With `CC1(C)CC[C@]2(CNS(C)(=O)=O)CC[C@]3(C)[C@H](C(=O)CC4[C@@]5(C)C=C(C#N)C(=O)C(C)(C)C5CC[C@]43C)[C@@H]2C1` (stereo partly drawn) [Compound 63220, N-(((4aS,6aR,6bR,12aR,14aR,14bS)-11-cyano-2,2,6a,6b,9,9,12a-heptamethyl-10,14-dioxo-1,2,3,4,4a,5,6,6a,6b,7,8,8a,9,10,12a,12b,13,14,14a,14b-icosahydropicen-4a-yl)methyl)methanesulfonamide], the fold induction at 0.25 µM came out at 3 in assay [1], 2 in assay [2] and 6 in assay [4]. For the same compound, the IC50 is approximately 15 nM in assay [3] (setting [6]) and more than 200 nM in assay [5] (Mus musculus, RAW264.7, 24 h).

`COC[C@]12CCC(C)(C)C[C@H]1[C@H]1C(=O)C[C@@H]3[C@@]4(C)C=C(C#N)C(=O)C(C)(C)[C@@H]4CC[C@@]3(C)[C@]1(C)CC2` [Compound 63228, (4aR,6aR,6bR,8aS,12aS,12bR,14aR,14bR)-8a-(methoxymethyl)-4,4,6a,6b,11,11,14b-heptamethyl-3,13-dioxo-3,4,4a,5,6,6a,6b,7,8,8a,9,10,11,12,12a,12b,13,14,14a,14b-icosahydropicene-2-carbonitrile]: the fold induction at 0.25 µM worked out at 2 in assay [1], 2 in assay [2] and 4 in assay [4]. The IC50 in assay [3] (setting [6]) is approximately 25 nM; in assay [5] (Mus musculus, RAW264.7, 24 h) it was 200 nM.

In the case of `CC1(C)CC[C@]2(CNC(=O)OC(C)(C)C)CC[C@]3(C)[C@H](C(=O)CC4[C@@]5(C)C=C(C#N)C(=O)C(C)(C)C5CC[C@]43C)[C@@H]2C1` (stereo partly drawn) [Compound 63253, tert-butyl((4aS,6aR,6bR,12aR,14aR,14bS)-11-cyano-2,2,6a,6b,9,9,12a-heptamethyl-10,14-dioxo-1,2,3,4,4a,5,6,6a,6b,7,8,8a,9,10,12a,12b,13,14,14a,14b-icosahydropicen-4a-yl)methylcarbamate], the fold induction at 0.25 µM in assay [1] was determined as 2; in assay [2], 1.5; in assay [4], 3. Further, the IC50 in assay [3] (setting [6]) was approximately 20 nM; in assay [5] (Mus musculus, RAW264.7, 24 h) it was approximately 200 nM.

Take `CC1(C)CC[C@]2(CN)CC[C@]3(C)[C@H](C(=O)C[C@@H]4[C@@]5(C)C=C(C#N)C(=O)C(C)(C)[C@@H]5CC[C@]43C)[C@@H]2C1` [Compound 63214, (6aR,6bR,8aS,12aS,12bR,14bR)-8a-(aminomethyl)-4,4,6a,6b,11,11,14b-heptamethyl-3,13-dioxo-3,4,4a,5,6,6a,6b,7,8,8a,9,10,11,12,12a,12b,13,14,14a,14b-icosahydropicene-2-carbonitrile]: the values for the fold induction at 0.25 µM in assay [1], in assay [2] and in assay [4] were 2, 1.8 and 3, respectively. The IC50 in assay [3] (setting [6]) was approximately 25 nM; in assay [5] (Mus musculus, RAW264.7, 24 h), more than 200 nM.

As to `CC1(C)CC[C@]2([C@H]3COCO3)CC[C@]3(C)[C@H](C(=O)C[C@@H]4[C@@]5(C)C=C(C#N)C(=O)C(C)(C)[C@@H]5CC[C@]43C)[C@@H]2C1` [Compound 63285, (4aR,6aR,6bR,8aS,12aS,12bR,14aR,14bR)-8a-((S)-1,3-dioxolan-4-yl)-4,4,6a,6b,11,11,14b-heptamethyl-3,13-dioxo-3,4,4a,5,6,6a,6b,7,8,8a,9,10,11,12,12a,12b, 13,14,14a,14b-icosahydropicene-2-carbonitrile], the IC50 in assay [3] (setting [6]) is approximately 15 nM; in assay [5] (Mus musculus, RAW264.7, 24 h), more than 200 nM.

For the compound `CC1(C)CC[C@]2(CSc3ccccc3)CC[C@]3(C)[C@H](C(=O)C[C@@H]4[C@@]5(C)C=C(C#N)C(=O)C(C)(C)[C@@H]5CC[C@]43C)[C@@H]2C1` [Compound 63235, (4aR,6aR,6bR,8aS,12aS,12bR,14aR,14bR)-4,4,6a,6b,11,11,14b-heptamethyl-3,13-dioxo-8a-(phenylthiomethyl)-3,4,4a,5,6,6a,6b,7,8,8a,9,10,11,12,12a,12b,13,14,14a,14b-icosahydropicene-2-carbonitrile], the IC50 in assay [3] (setting [6]) is approximately 80 nM; in assay [5] (Mus musculus, RAW264.7, 24 h), approximately 150 nM.

For the compound `CC1(C)CC[C@]2(C[S+]([O-])c3ccccc3)CC[C@]3(C)[C@H](C(=O)C[C@@H]4[C@@]5(C)C=C(C#N)C(=O)C(C)(C)[C@@H]5CC[C@]43C)[C@@H]2C1` (stereo partly drawn) [Compound 63288, (4aR,6aR,6bR,8aS,12aS,12bR,14aR,14bR)-4,4,6a,6b,11,11,14b-heptamethyl-3,13-dioxo-8a-(phenylsulfinylmethyl)-3,4,4a,5,6,6a,6b,7,8,8a,9,10,11,12,12a,12b,13,14,14a,14b-icosahydropicene-2-carbonitrile], the IC50 in assay [3] (RAW264.7 macrophages pre-treated 2 hours) is approximately 25 nM; in assay [5], approximately 200 nM.

For the compound `CC1(C)CC[C@]2([C@@H]3CO3)CC[C@]3(C)[C@H](C(=O)C[C@@H]4[C@@]5(C)C=C(C#N)C(=O)C(C)(C)[C@@H]5CC[C@]43C)[C@@H]2C1` [Compound 63275, (4aR,6aR,6bR,8aS,12aS,12bR,14aR,14bR)-4,4,6a,6b,11,11,14b-heptamethyl-8a-((R)-oxiran-2-yl)-3,13-dioxo-3,4,4a,5,6,6a,6b,7,8,8a,9,10,11,12,12a,12b,13,14,14a,14b-icosahydropicene-2-carbonitrile], the IC50 in assay [3] (setting [6]) is approximately 15 nM; in assay [5] (Mus musculus, RAW264.7, 24 h), more than 200 nM.

Turning to `CC1(C)CC[C@]2(COC(=O)C(C)(C)C)CC[C@]3(C)[C@H](C(=O)C[C@@H]4[C@@]5(C)C=C(C#N)C(=O)C(C)(C)[C@@H]5CC[C@]43C)[C@@H]2C1` [Compound 63297, ((4aS,6aR,6bR,8aR,12aR,12bR,14aR,14bS)-11-cyano-2,2,6a,6b,9,9,12a-heptamethyl-10,14-dioxo-1,2,3,4,4a,5,6,6a,6b,7,8,8a,9,10,12a,12b,13,14,14a,14b-icosahydropicen-4a-yl)methyl pivalate], the IC50 in assay [3] (setting [6]) is approximately 50 nM; in assay [5] (Mus musculus, RAW264.7, 24 h), approximately 200 nM.

With `CC1(C)CC[C@]2(CN)CC[C@]3(C)[C@H](C(=O)CC4[C@@]5(C)C=C(C#N)C(=O)C(C)(C)C5CC[C@]43C)[C@@H]2C1` (stereo partly drawn) [63214 salt, (6aR,6bR,8aS,12aS,12bR,14bR)-8a-(aminomethyl)-4,4,6a,6b,11,11,14b-heptamethyl-3,13-dioxo-3,4,4a,5,6,6a,6b,7,8,8a,9,10,11,12,12a,12b,13,14,14a,14b-icosahydropicene-2-carbonitrile, trifluoroacetic acid salt], the IC50 in assay [3] (setting [6]) was approximately 30 nM; in assay [5] (Mus musculus, RAW264.7, 24 h), more than 200 nM.

In the case of `CC1(C)CC[C@]2(COP(=O)(O)O)CC[C@]3(C)[C@H](C(=O)C[C@@H]4[C@@]5(C)C=C(C#N)C(=O)C(C)(C)[C@@H]5CC[C@]43C)[C@@H]2C1` [Compound 63269, ((4aS,6aR,6bR,8aR,12aR,12bR,14aR,14bS)-11-cyano-2,2,6a,6b,9,9,12a-heptamethyl-10,14-dioxo-1,2,3,4,4a,5,6,6a,6b,7,8,8a,9,10,12a,12b,13,14,14a,14b-icosahydropicen-4a-yl)methyl dihydrogen phosphate], the IC50 in assay [3] (setting [6]) is more than 200 nM; in assay [5] (Mus musculus, RAW264.7, 24 h), more than 200 nM.

For the compound `CC(=O)OC[C@]12CCC(C)(C)C(C#N)[C@H]1[C@H]1C(=O)CC3[C@@]4(C)C=CC(=O)C(C)(C)[C@@H]4CC[C@@]3(C)[C@]1(C)CC2` (stereo partly drawn) [Compound 402-65, ((4aS,6aR,6bR,8aR,12aR,14aR,14bS)-1-cyano-2,2,6a,6b,9,9,12a-heptamethyl-10,14-dioxo-1,2,3,4,4a,5,6,6a,6b,7,8,8a,9,10,12a,12b,13,14,14a,14b-icosahydropicen-4a-yl)methyl acetate], the IC50 in assay [3] (setting [6]) was approximately 12.5 nM; in assay [5] (Mus musculus, RAW264.7, 24 h) it was more than 200 nM.
